From patent publication US20260166039A1 (SCHRÖDINGER, INC., priority 2022, published 2026)
Read-outs that look alike come from different tables or passages of the source.

Key:
[1] = system: phosphorylation of Cdc2 Y15 (Wee1 substrate) in A427 cells; test: Phosphorylated Cdc2 MSD Electrochemiluminescence Assay; assay type: cell-based; conditions: Homo sapiens
Experimental: Phosphorylated Cdc2 MSD Electrochemiluminescence Assay
The effect of Wee1 inhibitors on cellular phosphorylation of the Wee1 substrate Cdc2 was determined using the following protocol:
A total of 40,000 A427 cells in 100 uL culture medium (1640 medium+10% Fetal bovine serum+1% Penicillin-Streptomycin) were plated in 96-well cell culture plates. 3-fold serial dilutions of test compounds were prepared in completed PBS at 25× final concentration. After 20 hours, the plates were removed and 4 μL of each were added to the cells and incubated with shaking for 30 minutes at 37° C., 5% CO2. Each concentration was tested in duplicate. After a total 6 hours incubation, plates were removed and centrifuged for 5 minutes and 100 uL of supernatant from each well was removed. Cells were washed with 200 μL PBS and lysed with 50 μL MSD lysis buffer (Meso Scale Diagnostics) supplied with 1× complete ULTRA cocktail inhibitor (Roche).
To detect phosphorylation of Cdc2 Y15, 30 μL of capture antibody solution (CST catalog #9116S 1:200) was added into each well of the MSD plate (MSD catalog #L15XB-6), sealed and incubated at 4° C. with shaking (450 rpm) overnight. The antibody solution was removed, wells blocked with BSA solution and plates washed three times with PBST, followed by addition of 30 μl of cell lysate per well. After 2 hours of incubation, plates were washed three times with PBST. 30 μL of 1× detection antibody solution (CST catalog #4539S 1:200) was then added to each well and incubated for 1 hour. Plates were washed three times with PBST and 30 μL of 1× secondary antibody solution (MSD, catalog #:R32AB-1, 1:5000) was added to each well and incubated for 1 hour. Plates were washed three times with PBST and 150 μL of 1× Read Buffer T (MSD, catalog #R92TC-1) was added to each well of the MSD plate. The electrochemiluminescence signal was measured on a MESO SECTOR S600 plate reader. The percentage of remaining phosphorylated Cdc2 signal was calculated following the equation below.
[formula] • HC (high control): Cells treated with DMSO • Cpds: Cells treated with test compounds • LC (low control): Cells treated with positive control Wee1 inhibitor

[2] = biological target: T1, Wee1 kinase domain (Homo sapiens, UniProt P30291); test: Wee1 Kinase Biochemical Assay (ADP-Glo); conditions: 15 uM ATP
T1 construct: Wee1 kinase domain was purchased from Carna (catalog #05-177); purchased Carna 05-177
How it was run: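 Kinase domain (1 nM) incubated 4 h at 25 °C with 15 uM ATP and 2 ng/mL Poly(Lys,Tyr 4:1) in 40 mM Tris-HCl, 20 mM MgCl2, 0.1 mg/mL BSA, 2 mM DTT. ADP formation read by ADP-Glo luminescence; percent inhibition normalized to DMSO and saturating reference-inhibitor controls.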

[3] = A-427, class symbols, read-out: A427 pCDC2 MSD IC50
[4] = class symbols, 1 nM Wee1 enzyme, 4 hours at 25° C.

T1 sequence (P30291 299-569 limits assumed): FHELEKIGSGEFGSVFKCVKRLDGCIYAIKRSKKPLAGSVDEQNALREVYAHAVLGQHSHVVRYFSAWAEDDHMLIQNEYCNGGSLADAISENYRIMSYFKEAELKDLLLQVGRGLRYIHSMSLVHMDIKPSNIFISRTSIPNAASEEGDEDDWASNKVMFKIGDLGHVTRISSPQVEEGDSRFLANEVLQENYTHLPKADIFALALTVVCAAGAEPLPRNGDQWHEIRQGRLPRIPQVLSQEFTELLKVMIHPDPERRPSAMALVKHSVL

IC50 ([2]; Wee1 kinase domain, ADP-Glo)	IC50 [2, 4]	SMILES	other results
< 10 nM	–	C[C@H]1COC(=O)N1c1cccc(N2c3nc(Nc4cnn(C5CCNCC5)c4)ncc3[C@@]3(C)COC(C)(C)C[C@@H]23)n1 (single isomer, unassigned) [Example 255]	IC50 ([1]; A-427, pCDC2 MSD): 100 to 1000 nM
< 10 nM	–	CN(C)Cc1cccc(N2c3nc(Nc4ccn(C5CCOCC5)c(=O)c4)ncc3[C@@]3(C)COC(C)(C)C[C@@H]23)n1 (single isomer, unassigned) [Example 387]	IC50 ([1]; A-427, pCDC2 MSD): 1000 to 10000 nM
–	< 10 nM	CN1C[C@@H]2C[C@H]1CN2c1ccc(Nc2ncc3c(n2)N(c2cccc(C(C)(C)O)n2)[C@@H]2CC(C)(C)OC[C@]32C)cc1Cl (single isomer, unassigned) [Example 435]	IC50 [1, 3]: 100 to 1000 nM
< 10 nM	–	CNCc1cccc(N2c3nc(Nc4ccc(C(C)(C)C)cc4)ncc3[C@@]3(C)COC(C)(C)C[C@@H]23)n1 (single isomer, unassigned) [Example 73]	IC50 ([1]; A-427, pCDC2 MSD): 100 to 1000 nM
–	< 10 nM	CN1CC[C@H](Oc2ccc(Nc3ncc4c(n3)N(c3cccc(N5CCOC5=O)n3)[C@@H]3CC(C)(C)OC[C@]43C)cc2)C1 [Example 615, 3-(6-((4bR,8aR)-4b,7,7-trimethyl-2-((4-(((S)-1-methylpyrrolidin-3-yl)oxy)phenyl)amino)-4b,7,8,8a-tetrahydropyrano[3′,4′:4,5]pyrrolo[2,3-d]pyrimidin-9(5H)-yl)pyridin-2-yl)oxazolidin-2-one]	IC50 [1, 3]: < 100 nM
< 10 nM	–	CN1CCC(n2cc(Nc3ncc4c(n3)N(c3cccc(N=S(C)(C)=O)n3)[C@@H]3CC(C)(C)OC[C@]43C)cn2)CC1 (single isomer, unassigned) [Example 102]	IC50 ([1]; A-427, pCDC2 MSD): 100 to 1000 nM
< 10 nM	–	Cc1cc(Nc2ncc3c(n2)N(c2cccc(C(C)(C)O)n2)[C@@H]2CC(C)(C)OC[C@]32C)ccc1N1CCN(C)CC1 (single isomer, unassigned) [Example 9]	IC50 ([1]; A-427, pCDC2 MSD): 100 to 1000 nM
–	< 10 nM	C[C@H]1COC(=O)N1c1cccc(N2c3nc(Nc4ccn(C5CCOCC5)c(=O)c4)ncc3[C@@]3(C)COC(C)(C)C[C@@H]23)n1 (single isomer, unassigned) [Example 781]	IC50 [1, 3]: 100 to 1000 nM
< 10 nM	–	C[C@H]1COC(=O)N1c1cccc(N2c3nc(Nc4ccc(C5CCN(C)CC5)nc4)ncc3[C@@]3(C)COC(C)(C)C[C@@H]23)n1 (single isomer, unassigned) [Example 297]	IC50 ([1]; A-427, pCDC2 MSD): 100 to 1000 nM
–	< 10 nM	CC1(C)C[C@H]2N(c3cccc(N4CCOC4=O)n3)c3nc(Nc4ccc(O[C@H]5CCNC5)cc4)ncc3[C@@]2(C)CO1 [Example 613, 3-(6-((4bR,8aR)-4b,7,7-trimethyl-2-((4-(((S)-pyrrolidin-3-yl)oxy)phenyl)amino)-4b,7,8,8a-tetrahydropyrano[3′,4′:4,5]pyrrolo[2,3-d]pyrimidin-9(5H)-yl)pyridin-2-yl)oxazolidin-2-one]	IC50 [1, 3]: < 100 nM
–	–	CC1(C)C[C@H]2N(c3cccc([C@@H]4CCCN4)n3)c3nc(Nc4ccn(C5CCOCC5)c(=O)c4)ncc3[C@@]2(C)CO1 (single isomer, unassigned) [Example 392, 1-(tetrahydro-2H-pyran-4-yl)-4-(((4bR,8aR)-4b,7,7-trimethyl-9-(6-((S)-pyrrolidin-2-yl)pyridin-2-yl)-4b,5,7,8,8a,9-hexahydropyrano[3′,4′:4,5]pyrrolo[2,3-d]pyrimidin-2-yl)amino)pyridin-2(1H)-one]	IC50 ([1]; A-427, pCDC2 MSD): 1000 to 10000 nM
–	100 to 1000 nM	CN1CC2(C1)CN(c1ccc(Nc3ncc4c(n3)N(c3cccc(N5CCCC5=O)n3)[C@H]3CC(C)(C)OC[C@@]43C)cc1)C2 [Example 691, 1-(6-((4bS,8aS)-4b,7,7-trimethyl-2-((4-(6-methyl-2,6-diazaspiro[3.3]heptan-2-yl)phenyl)amino)-4b,7,8,8a-tetrahydropyrano[3′,4′:4,5]pyrrolo[2,3-d]pyrimidin-9(5H)-yl)pyridin-2-yl)pyrrolidin-2-one]	–
–	< 10 nM	CC[C@@]1(O)CCc2ccc(N3c4nc(Nc5ccc(N6C[C@@H]7C[C@H]6CN7C)cc5)ncc4[C@@]4(C)COC(C)(C)C[C@@H]34)nc21 [Example 792, (R)-7-ethyl-2-((4bR,8aR)-4b,7,7-trimethyl-2-((4-((1S,4S)-5-methyl-2,5-diazabicyclo[2.2.1]heptan-2-yl)phenyl)amino)-4b,7,8,8a-tetrahydropyrano[3′,4′:4,5]pyrrolo[2,3-d]pyrimidin-9(5H)-yl)-6,7-dihydro-5H-cyclopenta[b]pyridin-7-ol]	–
10 to 100 nM	–	C[C@H]1COC(=O)N1c1cccc(N2c3nc(Nc4ccc(O[C@H]5CCN(C)C5)cc4)ncc3[C@]3(C)COC(C)(C)C[C@H]23)n1 (single isomer, unassigned) [Example 332]	–
–	100 to 1000 nM	CN1CC(c2ccc(Nc3ncc4c(n3)N(c3cccc(N5CCOC5=O)n3)[C@H]3CC(C)(C)OC[C@@]43C)cc2)C1 [Example 699, 3-(6-((4bS,8aS)-4b,7,7-trimethyl-2-((4-(1-methylazetidin-3-yl)phenyl)amino)-4b,7,8,8a-tetrahydropyrano[3′,4′:4,5]pyrrolo[2,3-d]pyrimidin-9(5H)-yl)pyridin-2-yl)oxazolidin-2-one]	–
≥ 1000 nM	–	CNCc1cccc(N2c3nc(Nc4ccc(C5(C)COC5)cc4)ncc3[C@]3(C)COC(C)(C)C[C@H]23)n1 (single isomer, unassigned) [Example 83]	–
≥ 1000 nM	–	CNC(=O)c1ccc(Nc2ncc3c(n2)N(c2cccc(N=S(C)(C)=O)n2)C2CC(C)(C)OCC32C)cc1F (single isomer, unassigned) [Example 118]	–
10 to 100 nM	–	CNCc1cccc(N2c3nc(Nc4ccc([C@@H]5CCCO5)cc4)ncc3C3(C)COC(C)(C)C[C@H]23)n1 (single isomer, unassigned) [Example 57]	–
–	< 10 nM	CN1C[C@@H]2CN(c3ccc(Nc4ncc5c(n4)N(c4ccccn4)[C@@H]4CC(C)(C)OC[C@]54C)cc3)C[C@@H]2C1 (single isomer, unassigned) [Example 803]	–
–	10 to 100 nM	CN1CCN(c2ccc(Nc3ncc4c(n3)N(c3cccc(N5CCCC5=O)n3)[C@H]3CC(C)(C)OC[C@@]43C)cc2)CC1 (single isomer, unassigned) [Example 586]	–
100 to 1000 nM	–	CN1C[C@H]2C[C@@H]1CN2c1ccc(Nc2ncc3c(n2)N(c2cccc(N=S(C)(C)=O)n2)[C@H]2CC(C)(C)OC[C@@]32C)cc1F (single isomer, unassigned) [Example 175]	–
10 to 100 nM	–	CNCc1cccc(N2c3nc(Nc4ccc(N5C(=O)CC[C@H]5C)cc4)ncc3[C@]3(C)COC(C)(C)C[C@H]23)n1 (single isomer, unassigned) [Example 29]	–
< 10 nM	–	CC1(C)C[C@H]2N(c3cccc(N=S(C)(C)=O)n3)c3nc(Nc4ccc5ncnn5c4)ncc3[C@@]2(C)CO1 (single isomer, unassigned) [Example 384]	–
–	10 to 100 nM	CN1C[C@H]2C[C@@H]1CN2c1ccc(Nc2ncc3c(n2)N(c2cccc(N4CCOC4=O)n2)[C@H]2CC(C)(C)OC[C@@]32C)cc1F [Example 669, 3-(6-((4bS,8aS)-2-((3-fluoro-4-((1R,4R)-5-methyl-2,5-diazabicyclo[2.2.1]heptan-2-yl)phenyl)amino)-4b,7,7-trimethyl-4b,7,8,8a-tetrahydropyrano[3′,4′:4,5]pyrrolo[2,3-d]pyrimidin-9(5H)-yl)pyridin-2-yl)oxazolidin-2-one]	–
–	100 to 1000 nM	CN[C@@H](C)c1cccc(N2c3nc(Nc4ccc(N5C[C@H]6C[C@@H]5CO6)cc4)ncc3[C@]3(C)COC(C)(C)C[C@H]23)n1 (single isomer, unassigned) [Example 578]	–
–	100 to 1000 nM	CN1[C@@H]2C[C@H]1CN(c1ccc(Nc3ncc4c(n3)N(c3cccc(C(C)(C)O)n3)[C@H]3CC(C)(C)OC[C@@]43C)cc1)C2 (single isomer, unassigned) [Example 442]	–
10 to 100 nM	–	C[C@H]1COC(=O)N1c1cccc(N2c3nc(Nc4ccc(O[C@@H]5CCNC5)cc4)ncc3[C@]3(C)COC(C)(C)C[C@H]23)n1 (single isomer, unassigned) [Example 326]	–
10 to 100 nM	–	Cc1cc(Nc2ncc3c(n2)N(c2cccc(N4C(=O)OC[C@@H]4C)n2)[C@H]2CC(C)(C)OC[C@@]32C)ccc1O[C@@H]1CCNC1 (single isomer, unassigned) [Example 336]	–
–	100 to 1000 nM	CN(C)Cc1cccc(N2c3nc(Nc4ccc(N5CCOCC5)cc4)ncc3[C@]3(C)COC(C)(C)C[C@H]23)n1 (single isomer, unassigned) [Example 524]	–
